# Source: US20170283453A1, “COFACTOR ANALOGUES FOR METHYLTRANSFERASES” (KATHOLIEKE UNIVERSITEIT LEUVEN, priority 2014, published 2017)
# Where a name gives a salt, the structure may show the parent alone.
# Legend:
# [1] = molecular target: M.TaqI DNA methyltransferase (Thermus aquaticus, UniProt P14385); assay: Restriction protection assay after M.TaqI-directed DNA modification (agarose gel); type: biochemical; settings: pUC19 DNA, Cutsmart buffer, 60° C., 1 hour; restriction enzyme TaqaI 1 hour; Ethidium bromide
# Procedure: Adenine-N6 DNA modification by M.TaqI DNA methyltransferase: […] DNA methyltransferase targets the four-base recognition sequence 5′-TCGA-3′ and modifies the underlined adenine residue at the N6-position and was combined with (6-Azido-hex-2-yne)(5′-Deoxyadenosyl)-(L-Cysteine)sulfonium salt (see example 9 for preparation). The methyltransferase enzyme and cofactors were incubated with pUC19 DNA in “Cutsmart buffer” at 60° C. for 1 hour. To determine if protection occurred the DNA was incubated with the corresponding restriction enzyme (TaqaI) for 1 hour. Afterwards, the remaining proteins were digested with Proteinase K. The DNA samples are then placed on an agarose gel and visualized with Ethidium bromide (FIG. 1).
# Adenine-N6 DNA modification by M.TaqI DNA methyltransferase: […] DNA methyltransferase targets the four-base recognition sequence 5′-TCGA-3′ and modifies the underlined adenine residue at the N6-position and was combined with Rhodamine sulfonium salt (see example 12 for preparation). The methyltransferase enzyme and cofactors were incubated with pUC19 DNA in “Cutsmart buffer” at 60° C. for 1 hour. To determine if protection occurred the DNA was incubated with the corresponding restriction enzyme (TaqaI) for 1 hour. […]
# [2] = test system: M.MpeI DNA methyltransferase; assay: Restriction protection assay after M.MpeI-directed DNA modification (agarose gel); type: biochemical; settings: pUC19 DNA, Cutsmart buffer, 60° C., 1 hour; restriction enzyme HhaI 1 hour; Ethidium bromide
# Procedure: Cytosine DNA modification by M.MpeI DNA methyltransferase: […] DNA methyltransferase targets the two-base recognition sequence 5′-CG-3′ and modifies the underlined cytosine residue and was combined with (8-Azido-oct-2-ene)(5′-Deoxyadenosyl)-(L-Cysteine)sulfonium salt (see example 9 for preparation). The methyltransferase enzyme and cofactors were incubated with pUC19 DNA in “Cutsmart buffer” at 60° C. for 1 hour. To determine if protection occurred the DNA was incubated with the corresponding restriction enzyme (HhaI) for 1 hour. Afterwards, the remaining proteins were digested with Proteinase K. The DNA samples are then placed on an agarose gel and visualized with Ethidium bromide (FIG. 3).
# [3] = test system: plasmid DNA; assay: Super resolution microscopy of fluorescently labeled DNA; settings: FIG. 5 panel C; DNA spin coated on poly-L-lysine coated cover slips
# Procedure: Adenine-N6 DNA modification by M.TaqI DNA methyltransferase: […] DNA methyltransferase targets the four-base recognition sequence 5′-TCGA-3′ and modifies the underlined adenine residue at the N6-position and was combined with Rhodamine sulfonium salt (see example 12 for preparation). The methyltransferase enzyme and cofactors were incubated with pUC19 DNA in “Cutsmart buffer” at 60° C. for 1 hour. To determine if protection occurred the DNA was incubated with the corresponding restriction enzyme (TaqaI) for 1 hour. Afterwards, the remaining proteins were digested with Proteinase K. DNA samples are then placed on an agarose gel and visualized with Ethidium bromide (FIG. 4).
# Fluorescent DNA was purified using DNA Cleaner & Concentrator 5 columns (Zymo Research), and the DNA was spin coated on poly-L-lysine coated cover slips and used directly for microscopy studies. (FIG. 5)
# M.TaqI DNA methyltransferase, sequence (P14385 whole entry): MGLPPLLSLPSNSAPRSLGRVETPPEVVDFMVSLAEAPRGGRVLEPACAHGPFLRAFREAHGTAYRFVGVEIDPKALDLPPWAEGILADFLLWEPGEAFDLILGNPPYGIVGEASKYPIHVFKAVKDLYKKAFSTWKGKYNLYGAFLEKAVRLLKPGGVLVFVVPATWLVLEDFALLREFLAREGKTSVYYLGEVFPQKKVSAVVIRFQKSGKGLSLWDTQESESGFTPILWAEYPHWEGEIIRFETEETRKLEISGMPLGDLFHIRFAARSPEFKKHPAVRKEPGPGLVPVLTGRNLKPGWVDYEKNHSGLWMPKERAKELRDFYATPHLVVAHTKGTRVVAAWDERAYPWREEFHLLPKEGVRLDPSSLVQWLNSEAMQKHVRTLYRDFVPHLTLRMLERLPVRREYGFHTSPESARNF
smiles,measurement,setting,value
[N-]=[N+]=NCCCC#CC[S+](C[C@H](N)C(=O)O)C[C@H]1O[C@@H](n2cnc3c(N)ncnc32)C(O)C1O (stereo partly drawn) [(6-Azido-hex-2-yne)(5′-Deoxyadenosyl)-(L-Cysteine)sulfonium Salt],Protection of DNA against cutting by restriction enzyme (band pattern on agarose gel),[1],"1 strong band, corresponding to uncut DNA"
[N-]=[N+]=NCCCCCC=CC[S+](C[C@H](N)C(=O)O)C[C@H]1O[C@@H](n2cnc3c(N)ncnc32)[C@H](O)[C@@H]1O (stereo partly drawn) [(8-Azido-oct-2-ene)(5′-Deoxyadenosyl)-(L-Cysteine)sulfonium salt],Protection of DNA against cutting by restriction enzyme (band pattern on agarose gel),[2],"1 strong band, corresponding to uncut DNA"
CCN(CC)c1ccc2c(-c3ccccc3C(=O)N(C)CCC(=O)NCCCCC/C=C/C[S+](C[C@H](N)C(=O)O)C[C@H]3O[C@@H](n4cnc5c(N)ncnc54)[C@@H](O)C3O)c3ccc(=[N+](CC)CC)cc-3oc2c1 (stereo partly drawn) [Rhodamine sulfonium salt],Colocalization of the dye with a DNA intercalating dye (fluorescent DNA labeling),[3],successful fluorescent DNA labeling
